Assay results reported in patent US8299086B2, “Pyrimidine derivatives” (Actelion Pharmaceuticals Ltd., priority 2007, dated 2012).

target: recombinant human S1P1 receptor (Homo sapiens, UniProt P21453); assay: GTPγS assay to determine EC50 values; type: biochemical; settings: 35S-GTPγS binding, membranes of CHO cells expressing recombinant human S1P1 receptor, pH 7.4
Protocol: GTPγS assay to determine EC50 values
GTPγS binding assays are performed in 96 well microtiter plates (Nunc, 442587) in a final volume of 200 μl, using membrane preparations of CHO cells expressing recombinant human S1P1 receptor. Assay conditions are 20 mM Hepes (Fluka, 54461), 100 mM NaCl (Fluka, 71378), 5 mM MgCl2 (Fluka, 63064), 0.1% BSA (Calbiochem, 126609), 1 μM GDP (Sigma, G-7127), 2.5% DMSO (Fluka, 41644), […] ^35S-GTPγS (Amersham Biosciences, SJ1320). The pH is 7.4. Test compounds are dissolved and diluted in 100% DMSO and pre-incubated at room temperature for 30 min in 150 μl of the above assay buffer, in the absence of ^35S-GTPγS. After addition of 50 μl of ^35S-GTPγS, the assay is incubated for 1 h at rt. The assay is terminated by transfer of the reaction mixture to a Multiscreen plate (Millipore, MAHFC1H60) using a cell harvester from Packard Biosciences, and the plates are washed with ice-cold 10 mM Na2HPO4/NaH2PO4 (70%/30%), dried, sealed at the bottom and, after addition of 25 μl MicroScint20 (Packard Biosciences, order#6013621), sealed on the top. Membrane-bound ^35S-GTPγS is measured with a TopCount from Packard Biosciences.
EC50 is the concentration of agonist inducing 50% of the maximal specific ^35S-GTPγS binding. Specific binding is determined by subtracting non-specific binding from maximal binding. Maximal binding is the amount of cpm bound to the Multiscreen plate in the presence of 10 μM of S1P. Non-specific binding is the amount of binding in the absence of an agonist in the assay.

Sequence of recombinant human S1P1 receptor (P21453 whole entry): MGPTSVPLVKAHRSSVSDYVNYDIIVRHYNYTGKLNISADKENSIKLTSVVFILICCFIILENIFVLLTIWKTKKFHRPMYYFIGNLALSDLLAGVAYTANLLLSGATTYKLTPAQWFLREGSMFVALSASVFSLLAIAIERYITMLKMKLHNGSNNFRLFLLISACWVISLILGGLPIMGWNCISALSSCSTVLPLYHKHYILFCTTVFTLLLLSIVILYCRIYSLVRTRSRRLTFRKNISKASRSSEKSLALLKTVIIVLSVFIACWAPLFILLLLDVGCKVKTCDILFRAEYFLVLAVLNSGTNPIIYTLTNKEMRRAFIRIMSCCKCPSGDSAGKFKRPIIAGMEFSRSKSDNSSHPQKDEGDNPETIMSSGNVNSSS

| SMILES | EC50 |
| --- | --- |
| CCNc1nc(C)cc(-c2nc(-c3cc(C)c(OC[C@@H](O)CNC(=O)CO)c(CC)c3)no2)n1 [Example 1, N—((S)-3-{2-Ethyl-4-[5-(2-ethylamino-6-methyl-pyrimidin-4-yl)-[1,2,4]oxadiazol-3-yl]-6-methyl-phenoxy}-2-hydroxy-propyl)-2-hydroxy-acetamide] | 1.15 nM |

tested on: circulating lymphocytes; assay: Assessment of in vivo efficacy: circulating lymphocytes after oral administration; set-up: species or system Wistar rats; settings: Rattus norvegicus, Lymphocyte, po, 6 h, read-out: Lymphocyte counts
Protocol: Assessment of In vivo Efficacy
The efficacy of the compounds of formula (I) is assessed by measuring the circulating lymphocytes after oral administration of 3 to 30 mg/kg of a compound of formula (I) to normotensive male Wistar rats. The animals are housed in climate-controlled conditions with a 12 h-light/dark cycle, and have free access to normal rat chow and drinking water. Blood is collected before and 3, 6 and 24 h after drug administration. Full blood is subjected to hematology using Advia Hematology system (Bayer Diagnostics, Zurich, Switzerland).
All data are presented as mean±SEM. Statistical analyses are performed by analysis of variance (ANOVA) using Statistica (StatSoft) and the Student-Newman-Keuls procedure for multiple comparisons. The null hypothesis is rejected when p<0.05.

| SMILES | change in vivo at 10 mg/kg |
| --- | --- |
| COc1cc(-c2noc(-c3cc(C)nc(NC(C)C)n3)n2)cc(C)c1OC[C@@H](O)CNC(=O)CO [Example 51, 2-hydroxy-N—((S)-2-hydroxy-3-{4-[5-(2-isopropylamino-6-methyl-pyrimidin-4-yl)-[1,2,4]oxadiazol-3-yl]-2-methoxy-6-methyl-phenoxy}-propyl)-acetamide] | -61 ± 2% |
| CCc1cc(-c2noc(-c3cc(C)nc(NC(C)C)n3)n2)cc(C)c1OC[C@@H](O)CO [Example 59, (S)-3-{2-ethyl-4-[5-(2-isopropylamino-6-methyl-pyrimidin-4-yl)-[1,2,4]oxadiazol-3-yl]-6-methyl-phenoxy}-propane-1,2-diol] | -69 ± 2% |

same assay, conditions: Rattus norvegicus, Lymphocyte; 6 h after oral administration of 10 mg/kg to normotensive male Wistar rats, compared to animals treated with vehicle only; mean±SEM; read-out: Lymphocyte counts

| SMILES | change in vivo at 10 mg/kg |
| --- | --- |
| CCc1cc(-c2noc(-c3cc(C)nc(NCC4CC4)n3)n2)cc(C)c1OC[C@@H](O)CNC(=O)CO [Example 32, N—[(S)-3-(4-{5-[2-(cyclopropylmethyl-amino)-6-methyl-pyrimidin-4-yl]-[1,2,4]oxadiazol-3-yl}-2-ethyl-6-methyl-phenoxy)-2-hydroxy-propyl]-2-hydroxy-acetamide] | -58 ± 1% |
| CCc1cc(-c2nc(-c3cc(C)nc(NC(C)C)n3)no2)cc(C)c1OC[C@@H](O)CNC(=O)CO [Example 85, (S)—N-(3-{2-Ethyl-4-[3-(2-isopropylamino-6-methyl-pyrimidin-4-yl)-[1,2,4]oxadiazol-5-yl]-6-methyl-phenoxy}-2-hydroxy-propyl)-2-hydroxy-acetamide] | -68 ± 1% |
| CCN(CC)c1nc(C)cc(-c2nc(-c3cc(C)c(OCC(O)CNC(=O)CO)c(C)c3)no2)n1 (racemic) [Example 10, rac-N-(3-{4-[5-(2-Diethylamino-6-methyl-pyrimidin-4-yl)-[1,2,4]oxadiazol-3-yl]-2,6-dimethyl-phenoxy}-2-hydroxy-propyl)-2-hydroxy-acetamide] | -50 ± 2% |
| CCNc1nc(C)cc(-c2nc(-c3cc(C)c(OCC(O)CO)c(C)c3)no2)n1 (racemic) [Example 16, rac-3-{4-[5-(2-Ethylamino-6-methyl-pyrimidin-4-yl)-[1,2,4]oxadiazol-3-yl]-2,6-dimethyl-phenoxy}-propane-1,2-diol] | -74 ± 1% |
| CCc1cc(-c2noc(-c3cc(C)nc(N(C)CC(C)C)n3)n2)cc(C)c1OC[C@@H](O)CNC(=O)CO [Example 29, N—[(S)-3-(2-ethyl-4-{5-[2-(isobutyl-methyl-amino)-6-methyl-pyrimidin-4-yl]-[1,2,4]oxadiazol-3-yl}-6-methyl-phenoxy)-2-hydroxy-propyl]-2-hydroxy-acetamide] | -73 ± 2% |
| CCNc1nc(CC)cc(-c2nc(-c3cc(C)c(OC[C@@H](O)CNC(=O)CO)c(CC)c3)no2)n1 [Example 33, N—((S)-3-{2-ethyl-4-[5-(6-ethyl-2-ethylamino-pyrimidin-4-yl)-[1,2,4]oxadiazol-3-yl]-6-methyl-phenoxy}-2-hydroxy-propyl)-2-hydroxy-acetamide] | -65 ± 2% |
| Cc1cc(-c2nc(-c3cc(C)c(OCC(O)CO)c(C)c3)no2)nc(NCC(C)C)n1 (racemic) [Example 20, rac-3-{4-[5-(2-Isobutylamino-6-methyl-pyrimidin-4-yl)-[1,2,4]oxadiazol-3-yl]-2,6-dimethyl-phenoxy}-propane-1,2-diol] | -55 ± 1% |
| CCc1cc(-c2noc(-c3cc(C)nc(NC(C)C)n3)n2)cc(C)c1CCC(=O)NCCO [Example 138, 3-{2-ethyl-4-[5-(2-isopropylamino-6-methyl-pyrimidin-4-yl)-[1,2,4]oxadiazol-3-yl]-6-methyl-phenyl}-N-(2-hydroxy-ethyl)-propionamide] | -74 ± 1% |
| CCc1cc(-c2noc(-c3cc(C)nc(OCC(C)C)n3)n2)cc(C)c1OC[C@@H](O)CNC(=O)CO [Example 40, N—((S)-3-{2-ethyl-4-[5-(2-isobutoxy-6-methyl-pyrimidin-4-yl)-[1,2,4]oxadiazol-3-yl]-6-methyl-phenoxy}-2-hydroxy-propyl)-2-hydroxy-acetamide] | -69 ± 2% |
| CCNc1nc(CC)cc(-c2nc(-c3cc(C)c(OC[C@@H](O)CO)c(CC)c3)no2)n1 [Example 65, (S)-3-{2-ethyl-4-[5-(6-ethyl-2-ethylamino-pyrimidin-4-yl)-[1,2,4]oxadiazol-3-yl]-6-methyl-phenoxy}-propane-1,2-diol] | -60 ± 4% |
| CCc1cc(-c2noc(-c3cc(C)nc(N(CC)CC)n3)n2)cc(C)c1OC[C@@H](O)CNC(=O)CO [Example 3, N—((S)-3-{4-[5-(2-Diethylamino-6-methyl-pyrimidin-4-yl)-[1,2,4]oxadiazol-3-yl]-2-ethyl-6-methyl-phenoxy}-2-hydroxy-propyl)-2-hydroxy-acetamide] | -70 ± 2% |
| CCNc1nc(C)cc(-c2nc(-c3cc(C)c(OC[C@@H](O)CNC(=O)CO)c(CC)c3)no2)n1 [Example 1, N—((S)-3-{2-Ethyl-4-[5-(2-ethylamino-6-methyl-pyrimidin-4-yl)-[1,2,4]oxadiazol-3-yl]-6-methyl-phenoxy}-2-hydroxy-propyl)-2-hydroxy-acetamide] | -70 ± 3% |
